The source of these data is US6949522B2, “β-2′- or 3′-halonucleosides” (Pharmasset, Inc., priority 2001, dated 2005).

Each structure is given as a SMILES string. Read-outs that look alike come from different tables or passages of the source.

One data set in a line: in vitro. As to conditions: human. The method, then: (§1) After a three day-incubation for HepG2, or 5 days for human PBM cells, cell viability and mitochondrial activity were measured in a colorimetric assay using the MTS- or MTT dye method (Promega, Madison, Wis.).
Data set [1] has as its system CEM (T-lymphoblastoid cell line). The class given is cell-based. The method, then:
(§2) The compounds were evaluated for their potential toxic effects on uninfected PHA-stimulated human PBM cells, in CEM (T-lymphoblastoid cell line obtained from American Type Culture Collection, Rockville, Md.) and Vero (African green monkey kidney) cells. PBM cells were obtained from whole blood of healthy seronegative donors (HIV-1 and hepatitis B virus) by single-step Ficoll-Hypaque discontinous gradient centrifugation. Log phase Vero, CEM and PHA-stimulated human PBM cells were seeded at a density of 5×10^3, 2.5×10^3 and 5×10^4 cells/well respectively. All of the cells were plated in 96-well cell culture plates containing ten-fold serial dilutions of the test drug. The cultures were incubated for 3, 4 and 5 days for Vero, CEM, and PBM cells, respectively in a humidified 5% CO2-air at 37° C. At the end of incubation, MTT tetrazolium dye solution (Cell titer 96®, Promega, Madison, Wis.) was added to each well and incubated overnight. The reaction was stopped with stop solubilization solution (Promega, Madison, Wis.). The plates were incubated for 5 hours to ensure that the formazan crystals were dissolved. The plates were read at a wavelength of 570 nm using an ELISA plate reader (Bio-tek instruments, Inc., Winooski, Vt., Model # EL 312e). […] Bookmark not defined.

The test system of the next data set is rRNA gene. The class given is cell-based, human. As to conditions: HepG2, 10 μM, 7 days. The procedure: Low passage number HepG2 cells, obtained from American Tissue Culture Collection (ATCC, Manassas, Va.) were seeded at 5,000 cells/well in collagen-coated 96-well plates. Test compounds were added to the media to obtain a final concentration of 10 μM. On culture day 7, cellular nucleic acids were prepared by using commercially available columns (RNeasy 96 kit, Qiagen).
The rRNA gene primers and probes were purchased from Applied Biosystems. […] The comparative Ct method uses arithmetic formulas in which the amount of target (COXII gene) is normalized to an endogenous reference (β-actin gene or rRNA gene) and is relative to a calibrator (no drug control at day 7). The arithmetic formula for this approach is given by 2-ΔΔCt (User bulletin # 2, Applied Biosystems).
In order to study the consequences of possible inhibitory effects of these compounds on host DNA polymerases, nuclear and rnitochondrial DNA levels were quantified and compared to no-treatment controls. Cells were incubated for 7 days with 10 μM of each compound, followed by total nucleic acid extractions and multiplex Q-PCR of the rRNA gene and the mitochondrial COXII gene. Nucleic acids from cells exposed to the control compounds were also amplified in multiplex for mitDNA and the β-actin gene.

Data set [2] deals with 3TC-resistant (xxBRU 184V) HIV-1. Nature of the data set: HIV-1 Q-RT-PCR assay in human PBM cells, strain xxBRU 184V. Conditions: for EC90: read-out: Q-RT-PCR HIV-1 assay 184V EC90. Format: cell-based. The method, then: (§3) Human PBM cells (1×10^6 cells/T25 flask) were PHA stimulated for 2 or 3 days, and infected with either a wild type (LAI and xxBRU) or a 3TC-resistant (xxBRU 184V) HIV-1 strain at 100 TCID50, as previously described (27). The culture was kept for 5 days in presence of test compounds at serial 1-log dilutions. Subsequently, human PBM cells were removed from the culture supernatant by centrifugation (10 minutes, 400×g, 4° C.). This clarified supernatant was tested either in the RT-assay, or in the Q-RT-PCR assay.
(§4) Viral RNA present in the culture supernatant was prepared using commercially available columns (QIAamp Viral RNA mini Kit, Qiagen, Valencia, Calif.). Viral RNA was detected in real-time by monitoring increases in fluorescence signal that resulted from degradation of a quenched fluorescent probe molecule following the hybridization of the probe to the arnplified viral DNA (TaqMan 7700 chemistry, Applied Biosystems, Foster City, Calif.). The TaqMan probe and primers were designed using the Primer Express software (Applied Biosystems); they cover highly conserved sequences complementary to an 81 base pair long fragment from the HIV-1 RT gene between codon 230 and 257 of the group MHIV-1 genome; • probe 5′-6FAM-[…]-TAMRA-3′ (Sequence 1) • sense primer: 5′-[…]-3′ (Sequence 2); and • antisense primer 5′-[…]-3′ (Sequence 3).
(§5) A total of 5 μL RNA was RT-amplified using reagents and conditions as described by the manufacturer (Applied Biosystems). […] Copy numbers were calibrated using the Roche Amplicor HIV-1 Monitor test™ (Roche Diagnostics, Branchburg, N.J.) on a 1-log dilution series of a clinical HIV-1 genotype B isolate (attenuated in vitro to obtain a high viral load). The 10-6 diluted sample became positive at threshold cycle (Ct=PCR cycle threshold where a sample becomes detectable)=35.52, which corresponded to 1,410 copies/mL in the Roche monitor HIV-1 version II assay. When validated over a dynamic range of 3 logs of virus, there was excellent correlation (r2˜1) between the two methodologies. […] Therefore, the currently designed primer and probe set allowed reliable quantification of both clinical samples and HIV-1 in vitro preparations.
(§6) HIV-1 present in culture supernatant fluids was quantified by two different methodologies: i) the Q-RT-PCR with read-out in log copies/mL; and ii) the endogenous viral RT assay on cell supernatant with read-out in log counts per minute/mL (CPM/mL). Upon addition of antiviral compounds to the culture media, a dose-related decrease in virus production was observed. Although the two methodologies measured different parameters (viral RNA versus active RT enzyme), results were not markedly different from each other. The HIV-1 Q-RT-PCR results were compared with a previously established cell-based antiviral drug evaluation assay (endogenous HIV-1 RT polymerization activity in cell supematant)(27).

The subject of a further data set is HIV-1 xxBRU (wild type). Nature of the data set: HIV-1 Q-RT-PCR assay in human PBM cells, strain xxBRU. As to conditions: 5 days, viral RNA reduced by 90%. Format: cell-based. The method, then:
as §3, §4, §5, §6

In a further data set the test system is HIV-1 LAI (wild type). The data set is described as follows: HIV-1 Q-RT-PCR assay in human PBM cells, strain LAI. The class given is cell-based. As to conditions: 5 days, viral RNA reduced by 90%. The method, then: as §3, §4, §5, §6
The next data set relates to human PBM cells. The data set is described as follows: Toxicity assay (MTS/MTT dye), human PBM cells. Conditions: read-out: Cytotoxicity PBM IC50; human PBM cells, 5 days incubation. The procedure: as §1
A general note: Tetrazolium assays rely on reduction of a dye to a coloured formazan, in cell work by metabolically active cells.

Data set [3] has as its system Vero (African green monkey kidney) cells. The data set is described as follows: in vitro. The class given is cell-based. The method, then: as §2
[4] abbreviates: Human immunodeficiency virus 1, PBMC, 120 h.
Where [5] appears, read: human PBM cells, 5 days, viral RNA reduced by 90%.

One may read the IC50 as the concentration that gives 50% inhibition. The term EC90 denotes the point of the concentration-response curve where the effect stands at 90%. With `Cc1cn([C@H]2C[C@H](N=[N+]=[N-])[C@@H](CO)O2)c(=O)[nH]c1=O` [AZT, 3′-azido-3′-deoxythymidine, reference compound], in the data set “in vitro”, the 50% inhibitory concentration (IC50) at 5 days is > 100 µM. Half-maximal inhibition in data set [1] (human, 4 days) (IC50) required 29 µM. Besides, the “Average ΔCt ± SD rDNA” value in the data set with rRNA gene was 0.86 ± 0.55. For the same molecule, the “Average ΔΔCt ± SD rDNA-β-actin” value in the data set with rRNA gene is listed as 0.76 ± 0.87. The EC90 in data set [2] (setting [4]) was found to be 0.01 µM; in the data set on HIV-1 xxBRU (wild type) (setting [4]), 10 nM; with HIV-1 LAI (wild type) (setting [4]), 0.03 µM.
Take `Nc1ccn([C@@H]2CS[C@H](CO)O2)c(=O)n1` [Compound 3TC, (−)-β-2′,3′-dideoxy-3′-thiacytidine, reference compound]: the concentration for half-maximal inhibition (IC50) at 5 days in the data set “in vitro” is > 100 µM. Also, the “Average ΔCt ± SD rDNA” value with rRNA gene is reported as 0.47 ± 0.51. Besides, the “Average ΔΔCt ± SD rDNA-β-actin” value with rRNA gene is 0.36 ± 0.66. Further, the EC90 was > 100 µM in data set [2] (setting [4]), 60 nM in the data set on HIV-1 xxBRU (wild type) (setting [4]) and 0.37 µM in the data set with HIV-1 LAI (wild type) (setting [4]). For the same molecule, the “Q-RT-PCR HIV-1 assay FI, fold increase (EC90 HIV-1184V/EC90 HIV-1xxBRU)” value (shortened to “Q-RT-PCR HIV-1 assay FI, fold increase”) in data set [2] was >1,562.
Turning to `Nc1ccn([C@@H]2C=C(F)[C@H](CO)O2)c(=O)n1` [Compound 10, 1-(2,3-Dideoxy-3-fluoro-β-L-glycero-pent-2-eno-furanosyl)cytosine], the IC50 at 5 days in “in vitro” was > 100 µM. Also, the “Average ΔCt ± SD rDNA” value with rRNA gene is on record as −0.08 ± 0.50. Also, the 90% effect concentration (EC90) in data set [2] (setting [4]) was > 100 µM; in the data set with HIV-1 xxBRU (wild type) (setting [4]), 35400 nM; in the data set with HIV-1 LAI (wild type) (setting [4]), 50.6 µM.
For the molecule `Nc1ccn([C@@H]2C=C(F)[C@H](CO)O2)c(=O)n1` [Compound 23, 1-(2,3-Didcoxy-3-fluoro-β-L-glycero-pent-2-eno-furanosyl)cytosine], the half-maximal inhibitory concentration (IC50) in the data set with human PBM cells came out at 87 µM. Further, in the data set on rRNA gene, the “Average ΔCt ± SD rDNA” value was −0.51 ± 0.35. Besides, the “Q-RT-PCR HIV-1 assay FI, fold increase” value in data set [2] worked out at 115. Also, the EC90 came out at 68.4 µM in data set [2] (setting [5]), 600 nM in the data set on HIV-1 xxBRU (wild type) and 0.92 µM in the data set on HIV-1 LAI (wild type).
As to `Nc1ccn([C@@H]2S[C@H](CO)C=C2F)c(=O)n1` [Compound D-17, (−)-1-[(1S,4R)-2,3-dideoxy-2,3-didehydro-2-fluoro4-thio-β-D-ribofuranosyl]-cytosine], the half-inhibitory concentration (IC50) (in the data set on human PBM cells; in data set [1]; in data set [3]) was > 100 µM in each case. Besides, in the data set with rRNA gene, the “Average ΔCt ± SD rDNA” value is 0.81 ± 0.60. Besides, the “Q-RT-PCR HIV-1 assay FI, fold increase” value in data set [2] worked out at 12.8. Moreover, the EC90 in data set [2] (setting [5]) was determined as 65.8 µM; in the data set with HIV-1 xxBRU (wild type), 5200 nM; in the data set on HIV-1 LAI (wild type), 24.6 µM.
For the molecule `Nc1nc(=O)n([C@@H]2S[C@H](CO)C=C2F)cc1F` [Compound D-18, (−)-1-[(1S,4R)-2,3-dideoxy-2,3-didehydro-2-fluoro-4-thio-β-D-ribofuranosyl]-5-fluorocytosine], the IC50 (in the data set on human PBM cells; in data set [1]; in data set [3]) was > 100 µM in each case. In addition, in the data set with rRNA gene, the “Average ΔCt ± SD rDNA” value was −0.45 ± 0.60. In addition, the EC90 was > 100 µM in data set [2] (setting [5]), 73900 nM in the data set on HIV-1 xxBRU (wild type) and > 100 µM in the data set with HIV-1 LAI (wild type).
As for `Nc1ccn([C@H]2S[C@@H](CO)C=C2F)c(=O)n1` [Compound L-17, (+)-1-[(1S,4R)-2,3-dideoxy-2,3-didehydro-2-fluoro-4-thio-β-L-ribofuranosyl]-cytosine], the concentration for half-maximal inhibition (IC50) (in the data set on human PBM cells; in data set [1]; in data set [3]) was > 100 µM in each case. Besides, in the data set with rRNA gene, the “Average ΔCt ± SD rDNA” value stood at 0.49 ± 0.77. For the same molecule, the “Q-RT-PCR HIV-1 assay FI, fold increase” value in data set [2] is >50. The 90% effect concentration (EC90) is > 100 µM in data set [2] (setting [5]), 2100 nM in the data set on HIV-1 xxBRU (wild type) and 4.1 µM with HIV-1 LAI (wild type).
Take `Nc1nc(=O)n([C@H]2S[C@@H](CO)C=C2F)cc1F` [Compound L-18, (+)-1-[(1S,4R)-2,3-dideoxy-2,3-didehydro-2-fluoro-4-thio-β-L-ribofuranosyl]-5-fluoro-cytosine]: the 50% inhibitory concentration (IC50) (in the data set on human PBM cells; in data set [1]; in data set [3]) was > 100 µM each time. Moreover, the “Average ΔCt ± SD rDNA” value in the data set with rRNA gene turned out to be 0.10 ± 0.44. For the same molecule, the “Q-RT-PCR HIV-1 assay FI, fold increase” value in data set [2] is recorded as >100. Also, the EC90 in data set [2] (setting [5]) was > 100 µM; in the data set on HIV-1 xxBRU (wild type) it was 940 nM; with HIV-1 LAI (wild type), 4.3 µM.
